Legend:
[1] = Dilution of DMSO solution (10 g/L) in water; assay type: physicochemical; conditions: solution in DMSO (10 g/L) diluted in large quantities of water
[2] = test system: spring wheat of “Zlata” variety; test: Field tests of GS-200 on wheat; assay type: in vivo
Protocol: After that GS-200 were dissolved in dimethyl sulfoxide to give solution of 10 g/L concentration, then water was added to give aqueous solutions of GS-200 with concentrations of 5.3·10^−7 M, 1.7·10^−8 M, 5.3·10^−9 M, 1.7·10^−10 M, 5.3·10^−11 M, 1.7·10^−12 M.
The field tests of the obtained aqueous solutions of GS-200 on spring wheat of “Zlata” variety were carried out. The tests were carried out in agroclimatic zone I, on the experimental field of the Moscow RIA «Nemchinovka» Agricultural technology center's Laboratory for the Development of Grain Protection Systems (Moscow region, Odintsovo district, Novoivanovskoe, 2017), according to the method adopted for registration tests of plant growth regulators: Methodology guidelines for approval tests of new fertilizers, bioregulators and plant regulators. Moscow-Vladimir, 2009, p. 104; State procedure of strain tests for agricultural crop. Corny, leguminous and forage cultures. Edition 1, M., 1985—p. 269, Edition 2, M., 1989—p. 194; State procedure of strain tests for agricultural crop. Corny, leguminous and forage cultures. Edition 1, M., 1985—p. 269, Edition 2, M., 1989—p. 194; All-Union Standard 10-108-87; All-Union State Standard 26212-91; All-Union State Standard 26207-91; All-Union Standard 10-108-87.
The soil of the testing ground is sod-podzolic on the covering silt. The depth of the topsoil is 27-30 centimeters, humus content is up to 2.2%, pHsalt is about 5.8-5.9, labile phosphorus index is 135-145 mg/kg, and exchange potassium index is 100-110 mg/kg.
Tests were conducted from Apr. 24 to Aug. 17, 2017. The weather conditions of the whole growing period were highly unfavorable (normal amount of precipitations was exceeded more than one and a half times; the temperature was much lower than long-term annual average), which is a strong stress factor.
Control test—without treatment with growth regulators.
Area of experimental plots—50 m^2, accounting area—40 m^2. Fourfold replication of the experiments.
Preceding crop was winter wheat. Immediately after the autumn harvesting of winter crops the area was treated with disc harrow to a depth of 10-12 cm. Then, fall plowing to a depth of 18-21 cm by a reverse plow and harrowing were carried out.
Before seeding the test crop, the soil was fertilized with nitrogen-phosphorus-potassium fertilizer in a dose of N64P64K64. Date of sowing: Apr. 24, 2017. Seeding rate: 5.5 million of germinated grains per 1 hectare.
Before seeding, all the seeds were treated with “Vincite Forte” fungicide with a consumption rate of 0.8 L per ton of seeds, as well as the aqueous solution of GS-200 selected for the experiment with a consumption rate of 10 L per ton of seeds (this aqueous solution was directly used as a liquid for treatment) or without a growth regulator, depending on the experiment. The following concentrations of the GS-200 solutions were used for treatment: 5.3·10^−7 M, 5.3·10^−9 M, […].
At the tillering phase (May 29-30) the crops were sprayed against weeds with “Linthur” herbicide at a dose of 175.0 g/ha. In the beginning of booting stage (June 12-13), in order to prevent blasts and leaf diseases, crops were sprayed with tank mixture of insecticide “BoreiNeo” in a dose 0.5 L/ha and fungicide “Alto Super” in a dose 0.5 L/ha. In the beginning of ear stage (June 28) crops on the testing ground were sprayed with tank mixture of fungicide “Rakurs” (against Septoria blight and Fusarium blight) in a dose 0.5 L/ha and a solution of GS-200 in a dose 300 L/ha. Spraying with aqueous solutions of GS-200 was carried out for all variants, where GS-200 were used for seed treatment. The concentration of the spraying solution was one-thirtieth of the concentration of the solution previously used for treatment of seeds: 1.7·10^−8 M, 1.7·10^−10 M and 1.7·10^−12 M respectively.
Harvesting of experimental plots was carried out on August 17, before harvesting test sheaves of 0.25 m^2 of each variant of the experiment were selected for structural analysis. […]

[3] = seeds treated 5.3 · 10^−7 M, sprayed 1.7·10^−8 M
[4] = seeds treated 5.3 · 10^−9 M, sprayed 1.7·10^−10 M
[5] = seeds treated 5.3 · 10^−11 M, sprayed 1.7·10^−12 M

SMILES: COC(=O)C(=O)C(C)C(=O)OC (centres unmarked) [GS-171, Dimethyl 2-methyl-3-oxobutanedioate]
- Appearance on dilution in water [1]: clear solution

SMILES: COC(=O)C(=O)C(Cl)C(=O)OC (centres unmarked) [GS-172, Dimethyl 2-chloro-3-oxobutanedioate]
- Appearance on dilution in water [1]: clear solution

SMILES: CCOC(=O)C(=O)C(Sc1ccc(C)cc1)C(=O)OCC (centres unmarked) [GS-184, Diethyl 2-[(4-Methylphenyl)Sulfanyl]-3-Oxobutanedioate]
- Appearance on dilution in water [1]: clear solution

SMILES: CCOC(=O)CC(=O)C(=O)OCC [GS-195, Diethyl ester of oxaloacetic acid]
- Appearance on dilution in water [1]: clear solution

SMILES: CCOC(=O)CC(=O)C(=O)O [GS-197, 4-Ethoxy-2,4-dioxobutanoic acid]
- Appearance on dilution in water [1]: clear solution

SMILES: CCOC(=O)C(=O)C(C(=O)OCC)c1ccccc1 (centres unmarked) [GS-199, Diethyl 2-oxo-3-phenylbutanedioate]
- Appearance on dilution in water [1]: clear solution

SMILES: CCOC(=O)C(=O)CC(=O)N(C)C [GS-200, Ethyl 4-(dimethylamino)-2,4-dioxobutanoat]
- 1000 grains weight [2, 3]: 45.4 g
- Gluten [2, 3]: 27.5 % dry basis
- Main head length [2, 3]: 8.24 cm
- Number of seeds from main head [2, 3]: 38.84 pcs
- Number of spikelets in main head [2, 3]: 15.88 pcs
- Number of stems [2, 3]: 450 pcs/m^2
- Number of yielding stems [2, 3]: 398 pcs/m^2
- Plant height [2, 3]: 121.1 cm
- Productive tilling capacity [2, 3]: 1.46
- Protein (N 5.7) [2, 3]: 12.21 % dry basis
- Starch [2, 3]: 58.40 % dry basis
- Total tilling capacity [2, 3]: 1.65
- Weight of grains from main head [2, 3]: 1.89 g
- Yield [2, 3]: 5.34 t/ha
- Yield, % (comparing to control) [2, 3]: 124.8%
- 1000 grains weight [2, 4]: 47.2 g
- Gluten [2, 4]: 26.0 % dry basis
- Main head length [2, 4]: 8.20 cm
- Number of seeds from main head [2, 4]: 37.40 pcs
- Number of spikelets in main head [2, 4]: 15.56 pcs
- Number of stems [2, 4]: 462 pcs/m^2
- Number of yielding stems [2, 4]: 388 pcs/m^2
- Plant height [2, 4]: 118.5 cm
- Productive tilling capacity [2, 4]: 1.53
- Protein (N 5.7) [2, 4]: 11.56 % dry basis
- Starch [2, 4]: 58.66 % dry basis
- Total tilling capacity [2, 4]: 1.82
- Weight of grains from main head [2, 4]: 1.90 g
- Yield [2, 4]: 5.37 t/ha
- Yield, % (comparing to control) [2, 4]: 125.5%
- 1000 grains weight [2, 5]: 44.1 g
- Gluten [2, 5]: 26.6 % dry basis
- Main head length [2, 5]: 7.56 cm
- Number of seeds from main head [2, 5]: 34.28 pcs
- Number of spikelets in main head [2, 5]: 15.56 pcs
- Number of stems [2, 5]: 398 pcs/m^2
- Number of yielding stems [2, 5]: 360 pcs/m^2
- Plant height [2, 5]: 118.7 cm
- Productive tilling capacity [2, 5]: 1.71
- Protein (N 5.7) [2, 5]: 11.82 % dry basis
- Starch [2, 5]: 59.05 % dry basis
- Total tilling capacity [2, 5]: 1.90
- Weight of grains from main head [2, 5]: 1.60 g
- Yield [2, 5]: 4.65 t/ha
- Yield, % (comparing to control) [2, 5]: 108.6%
- Appearance on dilution in water [1]: clear solution

SMILES: CCOC(=O)C(=O)CC(=O)N(CC)CC [GS-202, Ethyl 4-(diethylamino)-2,4-dioxobutanoat]
- Appearance on dilution in water [1]: clear solution

SMILES: CCN(CC)C(=O)CC(=O)C(N)=O [GS-203, N^4,N^4-Diethyl-2-oxobutanediamide]
- Appearance on dilution in water [1]: clear solution

SMILES: CN(C)C(=O)C(=O)CC(=O)N(C)CCO [GS-214, N^4-(2-hydroxyethyl)-N^1,N^1,N^4-trimethyl-2-oxobutanediamide]
- Appearance on dilution in water [1]: clear solution

SMILES: CCOC(=O)C(=O)CC(C)=O [GS-300, Ethyl 2,4-dioxovalerate]
- Appearance on dilution in water [1]: clear solution

SMILES: CCOC(=O)C(=O)CC(=O)c1ccccc1 [GS-310, Ethyl 2,4-dioxo-4-phenylbutanoate]
- Appearance on dilution in water [1]: clear solution

SMILES: CCOC(=O)C(=O)CC(=O)c1c[nH]c2ccccc12 [GS-312, Ethyl 4-(1H-indol-3-yl)-2,4-dioxobutanoate]
- Appearance on dilution in water [1]: bright yellow fluorescent suspension

SMILES: COC(=O)C1CNC(=O)C1=O (centres unmarked) [GS-500, Methyl 4,5-dioxopyrrolidine-3-carboxylate]
- Appearance on dilution in water [1]: clear solution
